Measured values reported in ChEMBL document CHEMBL1134761, “A new concept for multidimensional selection of ligand conformations (MultiSelect) and multidimensional scoring (MultiScore) of protein-ligand binding affinities” (J Med Chem, 2001).

How the values were obtained:
Interstitial collagenase = biological target: T1, Interstitial collagenase (Homo sapiens, UniProt P03956); assay: Inhibitory constant against matrix metalloprotease-1
T1 sequence (P03956 whole entry): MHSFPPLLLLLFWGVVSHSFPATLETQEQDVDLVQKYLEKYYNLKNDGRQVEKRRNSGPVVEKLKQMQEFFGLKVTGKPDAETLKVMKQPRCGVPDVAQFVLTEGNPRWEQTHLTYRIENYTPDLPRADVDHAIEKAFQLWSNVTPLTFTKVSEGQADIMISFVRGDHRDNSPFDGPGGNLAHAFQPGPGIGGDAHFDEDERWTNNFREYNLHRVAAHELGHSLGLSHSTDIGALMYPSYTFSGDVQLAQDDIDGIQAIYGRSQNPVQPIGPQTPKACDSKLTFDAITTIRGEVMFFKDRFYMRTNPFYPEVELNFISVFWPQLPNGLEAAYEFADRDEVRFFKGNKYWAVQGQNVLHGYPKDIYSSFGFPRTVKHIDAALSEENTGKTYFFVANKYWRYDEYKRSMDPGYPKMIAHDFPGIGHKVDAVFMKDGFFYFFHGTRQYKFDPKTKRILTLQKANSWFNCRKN

Stromelysin-1 = Stromelysin-1 (Homo sapiens, UniProt P08254); assay: Inhibitory constant against matrix metalloprotease-3
[1] = biological target: 72 kDa type IV collagenase (Homo sapiens, UniProt P08253); assay: Inhibitory constant against matrix metalloprotease-2
Sequence of 72 kDa type IV collagenase (P08253 whole entry): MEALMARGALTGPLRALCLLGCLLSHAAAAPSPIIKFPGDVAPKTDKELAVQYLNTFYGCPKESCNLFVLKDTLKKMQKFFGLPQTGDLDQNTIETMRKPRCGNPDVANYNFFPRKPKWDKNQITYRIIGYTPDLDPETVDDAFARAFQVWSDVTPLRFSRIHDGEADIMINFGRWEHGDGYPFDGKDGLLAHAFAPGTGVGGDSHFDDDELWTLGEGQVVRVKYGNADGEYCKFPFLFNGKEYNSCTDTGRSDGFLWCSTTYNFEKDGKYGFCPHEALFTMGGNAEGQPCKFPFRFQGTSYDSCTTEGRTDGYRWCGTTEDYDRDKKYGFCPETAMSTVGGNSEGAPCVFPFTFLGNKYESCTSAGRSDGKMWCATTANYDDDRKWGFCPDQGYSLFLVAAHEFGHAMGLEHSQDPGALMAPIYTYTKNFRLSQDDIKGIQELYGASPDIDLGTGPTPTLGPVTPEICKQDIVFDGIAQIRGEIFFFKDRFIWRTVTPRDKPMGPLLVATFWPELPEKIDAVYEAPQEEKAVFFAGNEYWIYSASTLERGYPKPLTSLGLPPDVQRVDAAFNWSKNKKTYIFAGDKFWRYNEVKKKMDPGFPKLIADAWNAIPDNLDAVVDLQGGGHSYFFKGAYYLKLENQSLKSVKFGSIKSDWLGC

Sequence of Stromelysin-1 (P08254 whole entry): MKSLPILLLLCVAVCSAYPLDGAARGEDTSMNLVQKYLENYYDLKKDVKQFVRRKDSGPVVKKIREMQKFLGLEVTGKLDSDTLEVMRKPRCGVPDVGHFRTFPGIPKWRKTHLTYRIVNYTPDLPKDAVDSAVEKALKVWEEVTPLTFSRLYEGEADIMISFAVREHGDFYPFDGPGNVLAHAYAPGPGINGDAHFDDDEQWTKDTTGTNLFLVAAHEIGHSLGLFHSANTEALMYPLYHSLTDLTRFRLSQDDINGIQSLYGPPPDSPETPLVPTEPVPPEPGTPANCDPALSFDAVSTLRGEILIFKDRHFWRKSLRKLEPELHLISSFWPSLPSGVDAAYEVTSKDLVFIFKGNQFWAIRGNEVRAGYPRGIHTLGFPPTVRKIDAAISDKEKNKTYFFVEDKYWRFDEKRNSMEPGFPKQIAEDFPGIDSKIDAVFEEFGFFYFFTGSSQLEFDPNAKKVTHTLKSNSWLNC

For `O=C(C[C@@H](CCCc1ccc(Cl)cc1)C(=O)N[C@@H](CC1CCCCC1)C(=O)NCCC(=O)NCCC(=O)N1CCOCC1)NO`, the Ki (Interstitial collagenase) was 319 nM, the Ki (Stromelysin-1) was 1.38 nM and the Ki [1] was 0.02 nM.

For `O=C(C[C@@H](CCCc1ccc(Cl)cc1)C(=O)N[C@@H](CC1CCCCC1)C(=O)NCCC(=O)NCCNS(=O)(=O)N1CCOCC1)NO`, the Ki (Interstitial collagenase) was 302 nM, the Ki (Stromelysin-1) was 1.73 nM and the Ki [1] was 0.01 nM.

`NC(=O)CCCNC(=O)[C@H](CC1CCCCC1)NC(=O)[C@H](CCCc1ccccc1)CC(=O)O` showed a Ki (Stromelysin-1) of 1090 nM.

Work on `Cc1ccc(CCC[C@H](CC(=O)NO)C(=O)N[C@@H](CC2CCCCC2)C(=O)NCCC(=O)NCCCCN2CCOCC2)cc1` yielded a Ki (Interstitial collagenase) of 642 nM, a Ki (Stromelysin-1) of 2.61 nM and a Ki [1] of 0.02 nM.

Compound `Cc1ccc(CCC[C@H](CC(=O)NO)C(=O)N[C@@H](CC2CCCCC2)C(=O)NCCC(=O)NCCNS(=O)(=O)N2CCOCC2)cc1` has a Ki (Interstitial collagenase) of 385 nM, a Ki (Stromelysin-1) of 2.75 nM and a Ki [1] of 0.03 nM.

`CN(C)CCCCNC(=O)CCNC(=O)[C@H](CC1CCCCC1)NC(=O)[C@H](CCCc1ccc(Cl)cc1)CC(=O)NO` gave a Ki (Interstitial collagenase) of 1050 nM, a Ki (Stromelysin-1) of 22.2 nM and a Ki [1] of 0.05 nM.

In the case of `Cc1ccc(CCC[C@H](CP(=O)(O)O)C(=O)N[C@@H](CC2CCCCC2)C(=O)NCCc2ccccc2)cc1`, the Ki (Interstitial collagenase) is reported as 17000 nM.

In the case of `COC(=O)CCNC(=O)CCNC(=O)[C@H](CC1CCCCC1)NC(=O)[C@H](CCCc1ccc(Cl)cc1)CC(=O)NO`, the Ki (Interstitial collagenase) is reported as 135 nM, the Ki (Stromelysin-1) is reported as 0.96 nM and the Ki [1] is reported as 0.01 nM.

`Cc1ccc(CCC[C@H](CC(=O)NO)C(=O)N[C@@H](CC2CCCCC2)C(=O)NCCC(=O)NCCN2CCOCC2)cc1` showed a Ki (Interstitial collagenase) of 455 nM, a Ki (Stromelysin-1) of 6.26 nM and a Ki [1] of 0.01 nM.

`O=C(O)CCNC(=O)CCNC(=O)[C@H](CC1CCCCC1)NC(=O)[C@H](CCCc1ccc(Cl)cc1)CC(=O)NO` showed a Ki (Interstitial collagenase) of 193 nM, a Ki (Stromelysin-1) of 0.8 nM and a Ki [1] of 0.01 nM.

`Cc1ccc(CCC[C@H](CC(=O)O)C(=O)N[C@@H](CC2CCCCC2)C(=O)NCCCCN2CCOCC2)cc1` was tested, and the Ki (Interstitial collagenase) was 100000 nM and the Ki (Stromelysin-1) was 1600 nM.

`NS(=O)(=O)c1ccc(CCNC(=O)CCNC(=O)[C@H](CC2CCCCC2)NC(=O)[C@H](CCCc2ccc(Cl)cc2)CC(=O)NO)cc1` was tested, and the Ki (Interstitial collagenase) was 382 nM, the Ki (Stromelysin-1) was 6.35 nM and the Ki [1] was 0.01 nM.

Work on `COc1ccc(CCC[C@H](CC(=O)O)C(=O)N[C@@H](CC2CCCCC2)C(=O)NCCc2ccc(S(N)(=O)=O)cc2)cc1` yielded a Ki (Interstitial collagenase) of 100000 nM.

`O=C(C[C@@H](CCCc1ccc(Cl)cc1)C(=O)N[C@@H](CC1CCCCC1)C(=O)NCCC(=O)NCCCCN1CCOCC1)NO` gave a Ki (Interstitial collagenase) of 313 nM, a Ki (Stromelysin-1) of 2.39 nM and a Ki [1] of 0.03 nM.

`Cc1ccc(CCC[C@H](CC(=O)NO)C(=O)N[C@@H](CC2CCCCC2)C(=O)NCCC(=O)NCCCCN(C)C)cc1` gave a Ki (Interstitial collagenase) of 313 nM, a Ki (Stromelysin-1) of 5.87 nM and a Ki [1] of 0.03 nM.

`O=C(C[C@@H](CCCc1ccccc1)C(=O)N[C@@H](CC1CCCCC1)C(=O)NCCC(=O)NCCc1ccc(S(=O)(=O)O)cc1)NO` was tested, and the Ki (Interstitial collagenase) was 942 nM, the Ki (Stromelysin-1) was 81.5 nM and the Ki [1] was 0.59 nM.

With `Cc1ccc(CCC[C@H](CC(=O)NO)C(=O)N[C@@H](CC2CCCCC2)C(=O)NCCC(=O)NCCc2ccc(S(N)(=O)=O)cc2)cc1` the Ki (Interstitial collagenase) was 329 nM, the Ki (Stromelysin-1) was 2.98 nM and the Ki [1] was 0.02 nM.
